Measurements published in patent US11492357B2, “Thieno[3,2-d]pyrimidine derivative compound having inhibitory activity for protein kinase” (Hanmi Pharm. Co., Ltd., priority 2017, dated 2022).
Counter-ions that a name gives are not always drawn.

How the values were obtained:
B-RAF wild type = B-RAF wild type (Homo sapiens (Human), UniProt P15056); assay: RAF kinase inhibitory activity, Kinase Profiling Service; format: biochemical; conditions: read-out: B-RAF WT (IC50)
Description: (§1) The levels of enzymatic inhibition of the compound were calculated as percent inhibition at various concentrations. Based on percent inhibition, dose-response curves were plotted using GraphPad Prism software.

RAF1 (C-RAF) Y340D/Y341D = RAF1 (C-RAF) Y340D/Y341D (Homo sapiens (Human), UniProt P04049, Y340D/Y341D); assay: as above; format: biochemical
Sequence of RAF1 (C-RAF) Y340D/Y341D (P04049 whole entry Y340D/Y341D): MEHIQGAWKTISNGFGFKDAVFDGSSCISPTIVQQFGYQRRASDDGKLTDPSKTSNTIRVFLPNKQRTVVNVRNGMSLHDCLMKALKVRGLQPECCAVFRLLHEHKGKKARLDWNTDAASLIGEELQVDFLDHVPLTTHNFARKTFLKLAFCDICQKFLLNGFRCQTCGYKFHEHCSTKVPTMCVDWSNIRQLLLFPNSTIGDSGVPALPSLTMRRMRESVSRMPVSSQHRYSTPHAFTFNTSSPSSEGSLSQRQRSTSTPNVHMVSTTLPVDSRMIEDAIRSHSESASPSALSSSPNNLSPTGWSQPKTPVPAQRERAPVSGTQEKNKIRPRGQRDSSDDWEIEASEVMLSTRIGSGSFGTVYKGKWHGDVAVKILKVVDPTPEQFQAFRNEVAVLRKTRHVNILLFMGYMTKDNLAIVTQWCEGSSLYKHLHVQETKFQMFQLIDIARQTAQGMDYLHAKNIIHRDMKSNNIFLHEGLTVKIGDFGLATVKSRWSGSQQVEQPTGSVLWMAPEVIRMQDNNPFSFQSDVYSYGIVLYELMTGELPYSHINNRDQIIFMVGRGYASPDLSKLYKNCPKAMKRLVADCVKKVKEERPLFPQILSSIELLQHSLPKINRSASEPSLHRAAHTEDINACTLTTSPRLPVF
Description: as §1

B-RAF V600E = B-RAF V600E (Homo sapiens (Human), UniProt P15056, V600E); assay: as above; format: biochemical
Sequence of B-RAF V600E (P15056 whole entry V600E): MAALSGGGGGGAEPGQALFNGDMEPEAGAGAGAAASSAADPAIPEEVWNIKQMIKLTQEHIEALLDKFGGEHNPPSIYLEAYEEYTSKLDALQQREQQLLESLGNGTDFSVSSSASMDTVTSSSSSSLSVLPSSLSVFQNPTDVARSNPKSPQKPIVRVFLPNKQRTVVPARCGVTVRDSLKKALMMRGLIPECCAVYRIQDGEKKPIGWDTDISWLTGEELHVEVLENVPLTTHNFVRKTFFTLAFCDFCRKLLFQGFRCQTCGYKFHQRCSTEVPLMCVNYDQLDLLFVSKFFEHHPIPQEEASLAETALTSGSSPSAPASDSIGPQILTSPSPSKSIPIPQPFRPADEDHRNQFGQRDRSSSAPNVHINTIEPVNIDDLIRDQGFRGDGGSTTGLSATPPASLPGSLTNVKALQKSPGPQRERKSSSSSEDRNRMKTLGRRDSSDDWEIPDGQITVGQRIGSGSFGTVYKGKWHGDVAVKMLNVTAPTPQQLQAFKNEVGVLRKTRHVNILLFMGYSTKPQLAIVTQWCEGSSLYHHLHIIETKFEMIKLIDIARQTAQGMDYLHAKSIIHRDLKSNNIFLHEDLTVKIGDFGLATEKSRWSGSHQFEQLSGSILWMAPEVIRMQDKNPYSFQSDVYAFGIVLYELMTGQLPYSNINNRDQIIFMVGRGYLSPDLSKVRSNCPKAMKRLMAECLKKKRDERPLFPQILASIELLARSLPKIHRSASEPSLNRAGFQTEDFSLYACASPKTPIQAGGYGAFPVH
Description: as §1

[1] = test system: SK-MEL-30 melanoma cells (N-RAS Q61K mutant); assay: Inhibition of cell growth of N-RAS Q61K mutant SK-MEL-30 cells (SRB); format: cell-based; conditions: Homo sapiens, 72 hours incubation, SRB staining
Description: N-RAS^Q61K mutant SK-MEL-30 melanoma cell line (ACC-151) was obtained from DSMZ (Deutsche Sammlung von Mikroorganismen und Zellkulturen GmbH, Germany). SK-MEL30 cells express wildtype B-RAF and mutant N-RAS (Q61K). SK-MEL-30 cells were incubated in a RPMI medium supplemented with 10% FBS and 1% penicillin/streptomycin (Gibco BRL) under 37° C., 5% CO2 and 95% air. Cells were seeded in 96-well plates at a density of 5,000 cells/well, and cultured for 18 hours or more. Then cells were treated with 0.1-10 μM (1/10 serial dilution) of test compounds, and incubated for 72 hours.
To evaluate cell viabilities, SK-MEL-30 cell lines were fixed with 10% TCA (trichloroacetic acid), stained with SRB (sulforhodamine B), and the absorbance was measured at 540 nm. Then, GI50, i.e., the concentration of drug to cause 50% reduction in proliferation of cancer cells, was calculated therefrom. The growth rates of cancer cells were calculated by Equation 1 or 2. [(Ti−Tz)/(C−Tz)]×100 (for […]) Equation 1 [(Ti−Tz)/Tz]×100 (for Ti<Tz) Equation 2
In Equation 1 and 2, ‘Tz’ refers to the density of untreated cells, which is the absorbance in 0% cell growth groups. ‘C’ refers to the density of cells cultured by adding only medium, and ‘Ti’ refers to the density of cells treated with test compounds. […]

Sequence of B-RAF wild type (P15056 whole entry): as the sequence (P15056 whole entry V600E) above, with E600V counted along it

Row | IC50 (B-RAF wild type) [nM] | IC50 (RAF1 (C-RAF) Y340D/Y341D) [nM] | IC50 (B-RAF V600E) [nM] | GI50 [1] [nM] | Compound
1 | 392 | 21 | 30 | 231 | Cc1ccc2c(Nc3ccc(O)c(Cl)c3F)nccc2c1NC(=O)c1csc2c(N)ncnc12 [Compound•2HCl, 4-amino-N-(1-((3-chloro-2-fluoro-4-hydroxyphenyl)amino)-6-methylisoquinolin-5-yl)thieno[3,2-d]pyrimidine-7-carboxamide dihydrochloride]
2 |  |  |  | > 10000 | CCCS(=O)(=O)Nc1ccc(F)c(C(=O)c2c[nH]c3ncc(-c4ccc(Cl)cc4)cc23)c1F [Control, vemurafenib, reference compound]
